{"source": "patent US20110313054A1", "about": "“BRANCHED COPOLYMERS, COMPOSITION AND USES” (Unilever PLC, priority 2009, published 2011)", "origin": "cited, not measured here", "conditions": "in water at 20° C.", "data": [{"smiles": "C=CC(=O)OCC(C)O", "note": "(centres unmarked) [2-Hydroxypropyl acrylate]", "values": [{"measurement": "Solubility in water w/w at 20° C.", "value": "Soluble"}]}, {"smiles": "C=C(C)C(=O)OCCO", "note": "[2-Hydroxyethyl methacrylate]", "values": [{"measurement": "Solubility in water w/w at 20° C.", "value": 3.00, "unit": "w/w"}]}, {"smiles": "C=C(C)C(=O)O", "note": "[Methacrylic acid]", "values": [{"measurement": "Solubility in water w/w at 20° C.", "value": "Soluble"}]}, {"smiles": "C=CC(=O)OCCO", "note": "[2-Hydroxyethyl acrylate]", "values": [{"measurement": "Solubility in water w/w at 20° C.", "value": "soluble"}]}, {"smiles": "C=C(C)C(=O)OCC(C)O", "note": "(centres unmarked) [2-Hydroxypropyl methacrylate]", "values": [{"measurement": "Solubility in water w/w at 20° C.", "value": 2.17, "unit": "w/w"}]}]}
